Laboratory results reported in patent publication US20240158446A1, “CYCLIC COMPOUND HAVING SELECTIVE INHIBITORY ACTION ON KRAS OVER HRAS AND NRAS” (CHUGAI SEIYAKU KABUSHIKI KAISHA, priority 2021, published 2024).
Like-named read-outs stand apart in the source and are kept apart here. Where a SMILES comes first, the peptide text is derived from it. Bridges are numbered along the chain shown (N, C = ends). [ ]: non-standard residue; d: D form. The star is where a group is joined. hPhe(3-Cl-4-CF3) = N[C@@H](CCc1ccc(C(F)(F)F)c(Cl)c1)C(=O)O; NPrPhe(4-CF3) = CCCN[C@@H](Cc1ccc(C(F)(F)F)cc1)C(=O)O; NEtPhe(4-Me) = CCN[C@@H](Cc1ccc(C)cc1)C(=O)O; NMeGly(cPent) = CN[C@H](C(=O)O)C1CCCC1; Pro(4,4-F2) = O=C(O)[C@@H]1CC(F)(F)CN1; Hyp = O=C(O)[C@@H]1C[C@@H](O)CN1; NMeD = CN[C@@H](CC(=O)O)C(=O)O; NMeL = CN[C@@H](CC(C)C)C(=O)O; Morpholide = C1CN(*)CCO1; NMeA = CN[C@@H](C)C(=O)O; Ac5c = NC1(C(=O)O)CCCC1; Aze = O=C(O)[C@@H]1CCN1; Ac4c = NC1(C(=O)O)CCC1; NEtG = CCNCC(=O)O; Sar = CNCC(=O)O

Legend:
[1] = molecular target: GDP-bound NRAS wild-type protein (Homo sapiens, UniProt P01111); experiment: Binding to NRAS by surface plasmon resonance (SPR), Single Cycle Kinetics; conditions: for NRAS/KRAS (ratio of KD value for NRAS to KD value for KRAS) / NRAS/KRAS (ratio of KD value with respect to NRAS to KD value with respect to KRAS): SPR, GDP-bound NRAS wild-type protein vs GDP-bound KRAS wild-type protein
[2] = molecular target: GDP-bound KRAS wild-type protein (Homo sapiens, UniProt P01116); experiment: Binding to KRAS by surface plasmon resonance (SPR), Single Cycle Kinetics; conditions: GDP-bound KRAS wild-type protein, 1:1 binding model, read-out: KRAS KD
[3] = molecular target: GDP-bound HRAS wild-type protein (Homo sapiens, UniProt P01112); experiment: Binding to HRAS by surface plasmon resonance (SPR), Single Cycle Kinetics; conditions: for HRAS/KRAS (ratio of KD value for HRAS to KD value for KRAS) / HRAS/KRAS (ratio of KD value with respect to HRAS to KD value with respect to KRAS): SPR, GDP-bound HRAS wild-type protein vs GDP-bound KRAS wild-type protein
Chain of GDP-bound HRAS wild-type protein (P01112 whole entry): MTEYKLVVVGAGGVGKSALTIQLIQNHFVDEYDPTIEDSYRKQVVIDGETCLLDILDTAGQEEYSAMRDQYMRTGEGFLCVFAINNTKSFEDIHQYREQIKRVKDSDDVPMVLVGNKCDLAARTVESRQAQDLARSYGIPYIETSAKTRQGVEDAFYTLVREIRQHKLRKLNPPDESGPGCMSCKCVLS

Chain of GDP-bound NRAS wild-type protein (P01111 whole entry): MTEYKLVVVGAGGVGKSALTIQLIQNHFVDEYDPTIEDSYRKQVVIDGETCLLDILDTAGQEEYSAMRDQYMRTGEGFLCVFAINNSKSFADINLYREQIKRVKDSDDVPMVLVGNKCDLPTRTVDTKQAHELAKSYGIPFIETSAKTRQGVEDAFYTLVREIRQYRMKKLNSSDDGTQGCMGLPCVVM
Chain of GDP-bound KRAS wild-type protein (P01116 whole entry): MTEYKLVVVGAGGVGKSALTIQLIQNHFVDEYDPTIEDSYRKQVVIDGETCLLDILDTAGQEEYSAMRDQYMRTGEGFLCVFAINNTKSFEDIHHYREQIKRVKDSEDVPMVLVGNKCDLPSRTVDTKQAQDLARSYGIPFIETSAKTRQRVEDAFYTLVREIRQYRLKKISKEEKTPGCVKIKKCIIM

SMILES	Kd ([2]; SPR Single Cycle Kinetics) [nM]	NRAS/KRAS (ratio of KD value with respect to NRAS to KD value with respect to KRAS) [1]	HRAS/KRAS (ratio of KD value with respect to HRAS to KD value with respect to KRAS) [3]	also measured
CC[C@H](C)[C@@H]1NC(=O)[C@H](CC(C)C)N(C)C(=O)C[C@@H](C(=O)N2CCOCC2)N(C)C(=O)[C@H](C2CCCC2)N(C)C(=O)C2(CCCC2)NC(=O)[C@@H]2CCCN2C(=O)[C@H](CCc2ccc(C(F)(F)F)c(Cl)c2)NC(=O)CN(CC)C(=O)[C@H](Cc2ccc(C)cc2)N(CC)C(=O)[C@@H]2CCN2C(=O)[C@H](C)N(C)C1=O [PP0006] ([NMeL]I[NMeA][Aze][NEtPhe(4-Me)][NEtG][hPhe(3-Cl-4-CF3)]P[Ac5c][NMeGly(cPent)][NMeD]-Morpholide; lactam N-11)	1.5			NRAS/KRAS (ratio of KD value for NRAS to KD value for KRAS) [1]: C (A compound having a KD ratio of 0.1 or more and less than 3 is denoted as C); HRAS/KRAS (ratio of KD value for HRAS to KD value for KRAS) [3]: C (A compound having a KD ratio of 0.1 or more and less than 3 is denoted as C)
CCO[C@@H]1C[C@H]2C(=O)NC3(CCC3)C(=O)N(C)[C@@H](C3CCCC3)C(=O)N(C)[C@H](C(=O)N(C)CCOC)CC(=O)N(C)[C@@H](CC(F)F)C(=O)N[C@@H]([C@@H](C)CC)C(=O)N(C)CC(=O)N(C)[C@H]3C/C=C\CCN(C3=O)[C@@H](Cc3ccc(C(F)(F)F)cc3)C(=O)N(C)CC(=O)N[C@@H](CCc3cc(F)c(C(F)(F)F)c(F)c3)C(=O)N2C1 [PP1320]				NRAS/KRAS (ratio of KD value for NRAS to KD value for KRAS) ([1]; KD ratio class): A (a compound having 10 or more and less than 20 is denoted as A); Kd ([2]; SPR, Single Cycle Kinetics): 0.057 nM; HRAS/KRAS (ratio of KD value for HRAS to KD value for KRAS) ([3]; KD ratio class): A (a compound having 10 or more and less than 20 is denoted as A)
CCO[C@@H]1C[C@H]2C(=O)NC3(CCC3)C(=O)N(C)[C@@H](C3CCCC3)C(=O)N(C)[C@H](C(=O)N3CCCCC3)CC(=O)N(C)[C@H]3CCC/C=C/c4ccc(cc4)C[C@@H](C(=O)N(C)CC(=O)N[C@@H](CCc4cc(F)c(C(F)(F)F)c(F)c4)C(=O)N2C1)N1CC/C=C\C[C@@H](C1=O)N(C)C(=O)CN(C1CC1)C(=O)[C@H]([C@@H](C)CC)NC3=O [PP2954]	0.37			NRAS/KRAS (ratio of KD value with respect to GDP-bound NRAS wild-type protein to KD value with respect to KRAS) ([1]; SPR KD ratio NRAS/KRAS, class symbols): A (a compound having 10 or more and less than 20 is denoted as A); HRAS/KRAS (ratio of KD value with respect to GDP-bound HRAS wild-type protein to KD value with respect to KRAS) ([3]; SPR KD ratio HRAS/KRAS, class symbols): A (a compound having 10 or more and less than 20 is denoted as A)
CC[C@H](C)[C@@H]1NC(=O)[C@H](CC(C)C)N(C)C(=O)C[C@@H](C(=O)N2CCOCC2)N(C)C(=O)[C@H](C2CCCC2)N(C)C(=O)C2(CCCC2)NC(=O)[C@@H]2C[C@H](OC)CN2C(=O)[C@H](CCc2cc(F)c(C(F)(F)F)c(F)c2)NC(=O)CN(C)C(=O)[C@H](Cc2ccc(C(F)(F)F)cc2)N2CCCC[C@@H](C2=O)N(C)C(=O)CN(C)C1=O [PP0557]	0.11	B (a compound having 3 or more and less than 10 is denoted as B)	B (a compound having 3 or more and less than 10 is denoted as B)	

Now from value to compound, other results behind:

Kd ([2]; SPR Single Cycle Kinetics) [nM]	SMILES	NRAS/KRAS (ratio of KD value with respect to NRAS to KD value with respect to KRAS) [1]	HRAS/KRAS (ratio of KD value with respect to HRAS to KD value with respect to KRAS) [3]	also measured
0.099	CCCN1C(=O)CN(C)C(=O)CN(CC)C(=O)[C@H]([C@@H](C)CC)NC(=O)[C@H](CC(C)C)N(C)C(=O)C[C@@H](C(=O)N(C)C)N(C)C(=O)[C@H](C2CCCC2)N(C)C(=O)C2(CCCC2)NC(=O)[C@@H]2CC(F)(F)CN2C(=O)[C@H](CCc2ccc(C(F)(F)F)c(Cl)c2)NC(=O)CN(C)C(=O)[C@@H]1Cc1ccc(C(F)(F)F)cc1 [PP0425] ([NMeL]I[NEtG][Sar][NPrPhe(4-CF3)][Sar][hPhe(3-Cl-4-CF3)][Pro(4,4-F2)][Ac5c][NMeGly(cPent)][NMeD]-NMe2; lactam N-11)	B (a compound having 3 or more and less than 10 is denoted as B)	C (A compound having a KD ratio of 0.1 or more and less than 3 is denoted as C)	
0.027	CC[C@H](C)[C@@H]1NC(=O)[C@H](CC(C)C)N(C)C(=O)C[C@@H](C(=O)N2CCOCC2)N(C)C(=O)[C@H](C2CCCC2)N(C)C(=O)C2(CCC2)NC(=O)[C@]2(C)CCCN2C(=O)[C@H](CCc2cc(F)c(C(F)(F)F)c(F)c2)NC(=O)CN(C)C(=O)[C@H](Cc2ccc(C(F)(F)F)cc2)N2CCCC[C@@H](C2=O)N(C)C(=O)CN(C)C1=O [PP0808]	B (a compound having 3 or more and less than 10 is denoted as B)	B (a compound having 3 or more and less than 10 is denoted as B)	
0.025	CCCN1C(=O)[C@@H]2CCN2C(=O)CN(C)C(=O)[C@H]([C@@H](C)CC)NC(=O)[C@H](CC(C)C)N(C)C(=O)C[C@@H](C(=O)N(C)C)N(C)C(=O)[C@H](C2CCCC2)N(C)C(=O)C2(CCC2)NC(=O)[C@@H]2C[C@@H](OCC)CN2C(=O)[C@H](CCc2ccc(C(F)(F)F)c(Cl)c2)NC(=O)CN(C)C(=O)[C@@H]1Cc1ccc(C(F)(F)F)cc1 [PP0445] ([NMeL]I[Sar][Aze][NPrPhe(4-CF3)][Sar][hPhe(3-Cl-4-CF3)][Hyp](Et)[Ac4c][NMeGly(cPent)][NMeD]-NMe2; lactam N-11)	C (A compound having a KD ratio of 0.1 or more and less than 3 is denoted as C)	C (A compound having a KD ratio of 0.1 or more and less than 3 is denoted as C)	
